Laboratory results reported in patent US7977304B2, “FK 228 derivates as HDAC inhibitors” (University of Southampton Highfield, priority 2005, dated 2011).
pIC50: −log10 of the molar value.

Tests used:
MCF7 breast cancer cells = assay: Activity Assay 6: CyQuant cell growth inhibition, MCF7; type: cell-based; settings: Homo sapiens, 144 h, MCF7, 6 days
Description: (§1) We analysed the ability of compounds to inhibit the in vitro growth of human cancer cells. Cell proliferation assays were performed using the CyQuant™ assay system (Molecular Probes, Inc. USA) according to the manufacturer's instructions. MCF7 breast, A2780 ovarian and PC3 and LNCAP prostate cancer cells were plated in 96 well plates, at a density of 1000 cells for MCF7 cells or 5000 cells for M780/PC3/LNCAP cells, in 100 μl of cell culture medium per well. Compounds were added a minimum of 5 hours later, in serial dilutions in cell culture medium, in 100 μl volumes at 2× final concentration. Cell culture medium was removed after 4 (A2780, PC3 or LNCAP cells) or 6 days (MCF7 cells) by inversion of the plate onto blotting paper and cells were gently washed once with 200 μl PBS. Plates were frozen immediately for a minimum of one hour at −80° C. and then thawed. 200 μl of 1× CyQuant cell lysis buffer supplemented with dye, made according to the manufacturer's instruction, was added immediately to each well and incubated at room temperature for 3-5 minutes. Fluorescence was then measured for each well using a Cytofluor II Fluoresence Multiwell Plate Reader and CytoFluor II software with filters at 480 nm for excitation and 520 nm for emission maxima. Cell proliferation was determined for mean values of duplicate samples as percentages relative to untreated cell samples (=100%). Growth inhibition curves were used to derive IC50 values.

[1] = tested on: HDAC (Hela Nuclear Extract); assay: Activity Assay 5: in vitro HDAC fluorescent activity assay (Biomol kit); type: biochemical; settings: compounds reduced with DTT prior to analysis, 37° C., 1 hour, read-out: Inhibition of HDAC activity IC50
Description: We analysed the ability of compounds to inhibit in vitro HDAC activity. In vitro HDAC assays were performed using a HDAC fluorescent activity assay kit (Biomol, UK) according to the manufacturer's instructions. Compounds were reduced prior to analysis; 1 mM compound was reduced with 30 mM DTT in DMSO overnight at room temperature, protected from light. Reactions were then set up in a 96-well plate. […] Serial dilutions were set up for each compound. Reactions containing Hela extract only and assay buffer only were also set up. 25 μl diluted Fluor de Lys™ substrate (100-fold in assay buffer) was added to each reaction, which were then incubated at 37° C. for 1 hour. The reaction was stopped by addition of 50 μl Fluor de Lys™ Developer (20-fold dilution in assay buffer, plus TSA diluted 100-fold). […] Inhibition of in vitro HDAC activity was determined for mean values of duplicate samples as percentages relative to HeLa extract only reactions. IC50 values were calculated using GraphPad Prism software.

MCF7 cells = assay: Activity Assay 3: cell cycle distribution and survival by propidium iodide flow cytometry; type: cell-based; settings: MCF7, ~10×IC50 for growth inhibition, 24, 48 or 72 hours
Description: Method; MCF7 cells were incubated with indicated concentrations of compounds, or left untreated as a control, for various times, as detailed in the figure legends. Cells were collected and the proportion of cells in different phases of the cell cycle determined using propidium iodide staining and flow cytometry as previously described (Purohit et al., Int J Ca 85, 584-9 2000). The proportion of cells with <G0/G1 content (pre G0) relative to total cells was calculated first. The proportion of cells in different cell cycle phases (G0/G1, S, G2/M) was calculated as a proportion of all cells in the cell cycle (i.e., total cells minus cells with <G0/G1 content).
MCF7 cells were incubated with the indicated concentrations of compounds (each equivalent to ˜10×IC50 values for growth inhibition), or DMSO as a solvent control, for 24, 48 or 72 hours. The proportion of cells in different phases of the cell cycle was determined by flow cytometry. Data shown are mean values ±SD, derived from two separate experiments, relative to untreated cells which are normalised to 1.

[2] = tested on: TNFα production from peripheral blood mononuclear cells (PBMCs); assay: Activity Assay 7: LPS-induced TNFα secretion from PBMCs (QUANTIKINE immunoassay); type: cell-based; settings: Homo sapiens, PBMC
Description: We analysed the ability of compounds to inhibit the production of TNFα from peripheral blood mononuclear cells (PBMCs). TNF-α immunoassays were carried out using the QUANTIKINE® Human TNF-α assay kit (R&D systems, Abingdon UK) according to the manufacturer's instructions. […] Compounds were added 1 hour later in volumes of 100 μl at 6× final concentration. Five hours later lipopolysaccharide (LSP, Sigma, Poole, UK) was added in a volume of 10 μl at 60× final concentration. Plates were mixed and left overnight at 37° C. 5% C02. Plates were centrifuged and cell supernatant was transferred to a new plate. The QUANTIKINE® assay reagents and standards were prepared according to the manufacturer instructions. The QUANTIKINE® assay plate was prepared by adding 50 μl of assay diluent RD1F into each well. This was followed by 200 μl of standard or 100 μl of calibrator diluent plus 100 μl cell supernatant; this was incubated for 2 hours at room temperature (RT). The plate was washed using wash buffer 4 times. After the final wash the plate was tapped on clean paper towel to remove all residual buffer. 200 μl of TNF-α conjugate was added to each well and incubated for 1 hour at RT. The plate was then washed as before. The required amount of substrate solution was prepared by adding equal volumes of colour reagents A and B, protecting from light, 200 μl of this mix was added to each well and incubated for 20 mins at RT, protected from light. 50 μl of stop solution was added to each well in the same order as the substrate solution and the plate was read on a Biorad 680 96 well plate reader (Bio-Rad, Hemel Hempstead, UK) at 450 nm with λ correction at 570 nm. TNF-α levels were determined for mean values of duplicate samples using absorbance in nm, calibration zero values were subtracted from all results to correct for the addition of calibrator diluent in the assay.

[3] = tested on: A2780 ovarian cancer cells; assay: Activity Assay 6: CyQuant cell growth inhibition, A2780; type: cell-based; settings: Homo sapiens, 96 h, A2780, 4 days
Description: as §1

[4] = tested on: LNCAP prostate cancer cells; assay: Activity Assay 6: CyQuant cell growth inhibition, LNCAP; type: cell-based; settings: Homo sapiens, 96 h, 4 days
Description: as §1

[5] = tested on: PC3 prostate cancer cells; assay: Activity Assay 6: CyQuant cell growth inhibition, PC3; type: cell-based; settings: Homo sapiens, 96 h, PC3, 4 days
Description: as §1

Structure (SMILES) | pIC50 (MCF7 breast cancer cells) | pIC50 [1] | pIC50 [3] | pIC50 [4] | pIC50 [5] | cell cycle distribution and survival (MCF7 cells) | inhibition at 0.0075 µM ([2]; Concentration 7.5 nM) | inhibition at 0.2 µM ([2]; Concentration 200 nM)
CC(C)[C@H]1NC(=O)[C@H]2CSSCC/C=C/[C@H](CC(=O)N[C@H](Cc3ccccc3)C(=O)N2)OC(=O)CNC1=O [Compound 9B, (E)-(1S,7R,10S,21R)-21-benzyl-7-isopropyl-2-oxa-12,13-dithia-5,8,20,23-tetraaza-bicyclo[8.7.6]tricos-16-ene-3,6,9,19,22-pentaone] | 8.54 | 7.60 | – | – | – | – | – | –
O=C(CCCCCCC(=O)Nc1ccccc1)NO [SAHA, Suberoylanilide hydroxamic acid, reference compound] | – | – | – | – | – | induce a predominant G2/M phase arrest and cell death | – | –
CC(C)[C@H]1NC(=O)[C@H]2CSSCC/C=C/[C@H](CC(=O)N[C@H](CCC(=O)O)C(=O)N2)OC(=O)CNC1=O [Compound 10F, 3-((E)-(1S,7R,10S,21R)-7-Isopropyl-3,6,9,19,22-pentaoxo-2-oxa-12,13-dithia-5,8,20,23-tetraaza-bicyclo[8.7.6]tricos-16-en-21-yl)-propionic acid] | 6.34 | 8.77 | – | – | – | – | – | –
CC(C)[C@H]1NC(=O)[C@H]2CSSCC/C=C/[C@H](CC(=O)N[C@H](C)C(=O)N2)OC(=O)[C@@H](C)NC1=O [Compound 9E, (E)-(1S,4R,7R,10S,21R)-7-isopropyl-4,21-dimethyl-2-oxa-12,13-dithia-5,8,20,23-tetraaza-bicyclo[8.7.6]tricos-16-ene-3,6,9,19,22-pentaone] | 6.93 | 7.06 | 6.19 | 5.92 | 6.53 | – | – | 84%

Further compounds by rising pIC50 (MCF7 breast cancer cells), results first:

pIC50 (MCF7 breast cancer cells) | pIC50 [1] | pIC50 [3] | pIC50 [4] | pIC50 [5] | Structure (SMILES) | cell cycle distribution and survival (MCF7 cells) | inhibition at 0.0075 µM ([2]; Concentration 7.5 nM) | inhibition at 0.2 µM ([2]; Concentration 200 nM)
8.28 | 8.00 | – | – | – | CC(C)[C@H]1NC(=O)C[C@H]2/C=C/CCSSC[C@@H](NC1=O)C(=O)N[C@H](C(C)C)C(=O)NCC(=O)O2 [Compound 9C, (E)-(1S,7R,10S,21R)-7,21-diisopropyl-2-oxa-12,13-dithia-5,8,20,23-tetraaza-bicyclo[8.7.6]tricos-16-ene-3,6,9,19,22-pentaone] | – | – | –
8.80 | 8.10 | 8.52 | 8.17 | 9.10 | CC(C)[C@H]1NC(=O)[C@H]2CSSCC/C=C/[C@H](CC(=O)N[C@H](CCC(=O)OC(C)(C)C)C(=O)N2)OC(=O)CNC1=O [Compound 9F, 3-((E)-(1S,7R,10S,21R)-7-Isopropyl-3,6,9,19,22-pentaoxo-2-oxa-12,13-dithia-5,8,20,23-tetraaza-bicyclo[8.7.6]tricos-16-en-21-yl)-propionic acid tert-butyl ester] | – | 68% | –
